This is an account of results in patent publication US11656384B2, “Composition, film, lens, solid state imaging element, and compounds” (FUJIFILM Corporation, priority 2017, dated 2023).

The nature of this data set: Dissolution test: solubility of the compound in a solvent at 25° C.
Where [1] appears, read: solvent PGMEA/PGME (90% by mass/10% by mass).
The mark [2] stands for this setting: solvent Diethylene glycol monobutyl ether acetate.

Protocol: By the following method, the solubility of the compound represented by General Formula (I) in a solvent was investigated.
Then, solids were removed using a 0.5 μm TEFLON (registered trademark) filter. Thereafter, the obtained filtrate was caused to volatilize for 3 hours at 150° C. in a vacuum, and the content of residues was measured, thereby quantifying the content of solids dissolved in the solvent.

Take `c1ccc(Nc2nc(Nc3ccccc3)nc(Nc3ccccc3)n2)cc1` [Compound A-1]: the Solubility (solvent Toluene) is listed as below 0.5% by mass.
`N#Cc1ccc(Nc2nc(Nc3ccc(C#N)cc3)nc(Nc3ccc(C#N)cc3)n2)cc1` [Compound A-2]: the Solubility runs as follows: (solvent Cyclohexyl methyl ether) below 0.5% by mass; (solvent PGMEA) “Less than 0.5% by % by mass”.
In the case of `CC(=O)Nc1ccc(Nc2nc(Nc3ccc(NC(C)=O)cc3)nc(Nc3ccc(NC(C)=O)cc3)n2)cc1` [Compound A-3], the Solubility is given as below 0.5% by mass (solvent Cyclohexanone), below 0.5% by mass (solvent PGME) and “Less than 0.5% by % by mass” (solvent PGMEA).
On to `c1ccc2cc(Nc3nc(Nc4ccc5ccccc5c4)nc(Nc4ccc5ccccc5c4)n3)ccc2c1` [Compound A-4], for which the Solubility is given as below 0.5% by mass (solvent Butyl acetate), below 0.5% by mass (solvent PGME) and “Less than 0.5% by % by mass” (solvent PGMEA).
Take `Brc1ccc(Nc2nc(Nc3ccc(Br)cc3)nc(Nc3ccc(Br)cc3)n2)cc1` [Compound A-5]: the Solubility is, setting by setting: (solvent 3-methoxybutyl acetate) below 0.5% by mass; (solvent PGMEA) “Less than 0.5% by % by mass”.
Take `O=[N+]([O-])c1ccc(Nc2nc(Nc3ccc([N+](=O)[O-])cc3)nc(Nc3ccc([N+](=O)[O-])cc3)n2)cc1` [Compound A-6]: the Solubility reads like this: (solvent Cyclohexyl acetate) below 0.5% by mass; (solvent PGMEA) “Less than 0.5% by % by mass”.
With `c1ccc(-c2ccc(-c3ccc(Nc4nc(Nc5ccc(-c6ccc(-c7ccccc7)cc6)cc5)nc(Nc5ccc(-c6ccc(-c7ccccc7)cc6)cc5)n4)cc3)cc2)cc1` [Compound A-7], the Solubility entry is on record as “Less than 0.5% by % by mass” (solvent PGMEA), below 0.5% by mass (solvent PGMEA/PGME (70% by mass/30% by mass)) and below 0.5% by mass under setting [1].
With `N#Cc1ccc(-c2ccc(Nc3nc(Nc4ccc(-c5ccc(C#N)cc5)cc4)nc(Nc4ccc(-c5ccc(C#N)cc5)cc4)n3)cc2)cc1` [Compound A-8], the Solubility is, setting by setting: (solvent Cyclopentanone) below 0.5% by mass; (solvent PGMEA) “Less than 0.5% by % by mass”.
On to `CSc1ccc(Nc2nc(Nc3ccc(SC)cc3)nc(Nc3ccc(SC)cc3)n2)cc1` [Compound A-9], for which the Solubility reads like this: (solvent Cyclobutyl ether) below 0.5% by mass; under setting [2], below 0.5% by mass; (solvent PGMEA) “Less than 0.5% by % by mass”.
On to `CN(c1ccccc1)c1nc(Nc2ccccc2)nc(Nc2ccccc2)n1` [Compound A-10], for which the Solubility is below 0.5% by mass (solvent Anisole), “Less than 0.5% by % by mass” (solvent PGMEA) and below 0.5% by mass (solvent Propylene glycol diacetate).
Turning to `c1ccc(Nc2nc(Nc3ccccc3)nc(Oc3ccccc3)n2)cc1` [Compound A-11], the Solubility (solvent Dipropylene glycol dimethyl ether) was below 0.5% by mass and the Solubility result (solvent PGMEA) is given as “Less than 0.5% by % by mass”.
Take `c1ccc(Nc2nc(Nc3ccccc3)nc(Sc3ccccc3)n2)cc1` [Compound A-12]: the Solubility was below 0.5% by mass (solvent 3-methoxybutyl acetate), below 0.5% by mass under setting [2] and “Less than 0.5% by % by mass” (solvent PGMEA).
Take `O=C(Nc1ccccc1)c1cc(C(=O)Nc2ccccc2)cc(C(=O)Nc2ccccc2)c1` [Compound A-14]: the Solubility reads like this: (solvent Ethyl lactate) below 0.5% by mass; (solvent PGMEA) “Less than 0.5% by % by mass”.
Take `O=S(=O)(Nc1ccccc1)c1cccc2c(S(=O)(=O)Nc3ccccc3)cccc12` [Compound A-15]: the Solubility by setting is: (solvent Cyclohexyl acetate) below 0.5% by mass; (solvent PGMEA) “Less than 0.5% by % by mass”; under setting [1], below 0.5% by mass.
On to `O=S(=O)(Nc1ccccc1)c1cccc2c(S(=O)(=O)Nc3ccccc3)cccc12` [Compound A-16], for which the Solubility reads like this: (solvent 3-methoxybutyl acetate) below 0.5% by mass; (solvent PGMEA/PGME (80% by mass/20% by mass)) below 0.5% by mass.
The compound `O=S(=O)(Nc1ccccc1)c1cccc2c(S(=O)(=O)Nc3ccccc3)cccc12` [Compound A-17] had a Solubility (solvent Cyclopentanone/PGME (90% by mass/10% by mass)) below 0.5% by mass.
For the compound `c1ccc(Nc2nc(Nc3ccccc3)nc(Nc3ccc(-c4ccc(-c5ccccc5)cc4)cc3)n2)cc1` [Compound A-19], where the note is “solvent PGMEA”, the Solubility entry is listed as “Less than 0.5% by % by mass”.
The same measure, in the same setting: in the case of `c1ccc(-c2ccc(-c3ccc(Nc4nc(Nc5ccc(-c6ccc(-c7ccccc7)cc6)cc5)nc(Nc5nc6ccccc6s5)n4)cc3)cc2)cc1` [Compound A-20] it was “Less than 0.5% by % by mass”.
On to `c1ccc(-c2ccc(-c3ccc(-c4ccc(Nc5nc(Nc6ccc(-c7ccc(-c8ccc(-c9ccccc9)cc8)cc7)cc6)nc(Nc6ccc(-c7ccc(-c8ccc(-c9ccccc9)cc8)cc7)cc6)n5)cc4)cc3)cc2)cc1` [Compound A-21], for which the Solubility entry (solvent PGMEA) was “Less than 0.5% by % by mass”.
Turning to `Clc1ccc(-c2ccc(Nc3nc(Nc4ccc(-c5ccc(Cl)cc5)cc4)nc(Nc4ccc(-c5ccc(Cl)cc5)cc4)n3)cc2)cc1` [Compound A-22], the Solubility result (solvent PGMEA) is recorded as “Less than 0.5% by % by mass”.
The same measure, in the same setting: in the case of `CN(c1ccccc1)c1nc(Nc2ccc(-c3ccc(-c4ccccc4)cc3)cc2)nc(Nc2ccc(-c3ccc(-c4ccccc4)cc3)cc2)n1` [Compound A-23] it was “Less than 0.5% by % by mass”; in that of `N#Cc1ccc(-c2ccc(Nc3nc(Nc4ccc(-c5ccc(C#N)cc5)cc4)nc(Oc4ccccc4)n3)cc2)cc1` [Compound A-24], “Less than 0.5% by % by mass”.
